Patent US6075057A, “Inhibition of carbohydrates metabolism by quinone compounds” (priority 1997, dated 2000)

Tests used:
[1] = biological target: T1, α-mannosidase (EC 3.2.1.24) (Canavalia ensiformis, UniProt C0HJB3); test: Initial screening assay for enzyme inhibition, α-mannosidase; type: biochemical, jack beans; conditions: for remaining activity at 10 µM: α-mannosidase, 10 μM inhibitor, 2% MeOH, read-out: % Enzyme activity relative to control
T1 construct: 66 and 44 kDa subunits cleaved from one precursor
T1 sequence (C0HJB3 1-981): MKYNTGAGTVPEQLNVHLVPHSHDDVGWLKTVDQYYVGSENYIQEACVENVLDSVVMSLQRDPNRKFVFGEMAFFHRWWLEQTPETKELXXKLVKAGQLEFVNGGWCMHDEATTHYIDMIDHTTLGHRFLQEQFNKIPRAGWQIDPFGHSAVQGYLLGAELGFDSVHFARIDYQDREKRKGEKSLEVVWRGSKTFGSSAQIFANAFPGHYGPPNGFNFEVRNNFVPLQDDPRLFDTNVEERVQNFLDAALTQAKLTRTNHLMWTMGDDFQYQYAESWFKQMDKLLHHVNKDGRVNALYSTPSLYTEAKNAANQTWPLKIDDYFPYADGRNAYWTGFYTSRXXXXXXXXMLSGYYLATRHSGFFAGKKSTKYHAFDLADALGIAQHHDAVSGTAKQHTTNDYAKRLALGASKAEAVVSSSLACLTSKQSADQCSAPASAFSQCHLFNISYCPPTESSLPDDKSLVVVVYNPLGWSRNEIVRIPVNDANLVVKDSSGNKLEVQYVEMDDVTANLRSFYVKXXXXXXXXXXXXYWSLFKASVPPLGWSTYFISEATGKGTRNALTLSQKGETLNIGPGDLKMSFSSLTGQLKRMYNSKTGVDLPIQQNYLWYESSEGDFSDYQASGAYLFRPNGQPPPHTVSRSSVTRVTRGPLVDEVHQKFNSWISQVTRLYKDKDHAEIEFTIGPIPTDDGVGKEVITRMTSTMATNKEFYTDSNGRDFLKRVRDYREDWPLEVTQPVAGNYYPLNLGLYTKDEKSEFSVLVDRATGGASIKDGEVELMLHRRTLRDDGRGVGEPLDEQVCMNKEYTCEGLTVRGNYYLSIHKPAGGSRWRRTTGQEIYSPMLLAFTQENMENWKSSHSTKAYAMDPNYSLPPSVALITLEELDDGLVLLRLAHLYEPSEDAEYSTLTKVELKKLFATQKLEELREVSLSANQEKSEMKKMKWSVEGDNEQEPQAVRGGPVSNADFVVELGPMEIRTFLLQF
Protocol: (§1) Optically pure enantiomers of avarol were synthetically prepared. A survey of potential inhibitory activity by avarol against twelve glycosidases was performed according to general procedures^15 (see experimental section). The enzymes tested and their biological sources are listed in Table 1 along with any pertinent references found for a given enzyme. In order to determine a working range for enzyme and substrate concentrations in which the rate of product formation was linear and steady-state kinetics were applicable, initial rate studies with varying substrate concentrations were performed in the absence of inhibitor. The Michaelis constants (Km 's) and Vmax values for these enzymes were determined from these plots using standard graphical analysis procedures as described in ref. 17 and are summarized in Table 2.
Initial screening assays with the enantiomeric avarols indicated significant activity by these compounds against only two of the twelve enzymes studies. […] This can occur when the two species compete for the same site or nearby sites on the enzyme. The equilibria that describe competitive inhibition are shown below. [drawing 3]
(§2) Enzymatic Assays. […] Reactions were monitored at 400 nm (the absorbance of the p-nitrophenol product, ε=3204.5 M^-1 cm^-1) for a given amount of time and the initial rates were calculated and expressed as μmols p-nitrophenol formed per unit enzyme per second. Absportion readings for control reactions were corrected for the small baseline absorbance at time zero. Small discrepancies between time zero absorbance readings in a given inhibition assay and a time zero reading in a control assay were used to correct the overall absorbance change calculated in the inhibition assay. […]
(§3) Typical assay: A 1.5-mL quartz cuvette was charged with 940 μL of PIPES-NaOAc buffer solution (pH 6.56), 20 μL of inhibitor solution, and 20 μL of enzyme solution. […] The reaction was monitored at 400 nm for 1 min and the absorbance change was used to calculate the initial hydrolysis rate. […]

[2] = tested on: β-N-acetylglucosaminidase (EC 3.2.1.30); test: Initial screening assay for enzyme inhibition, β-N-acetylglucosaminidase; type: biochemical, bovine kidney; conditions: 2% MeOH
Protocol: as §1
(§4) Enzymatic Assays. Piperazine-N,N'-bix-(2-ethanesulfonic acid)(PIPES) buffer, enzymes, and substrates were purchased from Sigma and used as received. Buffer solutions and enzymes (desiccated) were stored at 4° C. p-Nitrophenyl glycoside substrates were stored desiccated at -20° C. Enzyme inhibition assays and initial rate studies were carried out with the appropriate p-nitrophenyl glycoside substrates following the general procedure of Kajimoto et al., J. Am. Chem. Soc. 113:6187 (1991) with the exception that amyloglucosidase (EC 3.2,1.3, Asp. niger) was assayed following the method of Saul et al., Arch. Biochem. Biophys. 221:593 (1983). Assays were performed in a Perkin-Elmer Lambda Array 3840 Spectrophotometer using the built-in drive method (resolution=0.25, average=8) in a quartz cuvette (1 cm pathlength). Background absorption spectra were acquired using millipore filtered water as medium. Steady-state kinetics were maintained by adjusting the amount of enzyme used in each assay so that less than 10% of the substrate was converted to product for the duration of the reaction. Reactions were monitored at 400 nm (the absorbance of the p-nitrophenol product, ε=3204.5 M^-1 cm^-1) for a given amount of time and the initial rates were calculated and expressed as μmols p-nitrophenol formed per unit enzyme per second. Absportion readings for control reactions were corrected for the small baseline absorbance at time zero. Small discrepancies between time zero absorbance readings in a given inhibition assay and a time zero reading in a control assay were used to correct the overall absorbance change calculated in the inhibition assay. […]
as §3

[3] = biological target: T2, β-galactosidase (EC 3.2.1.23, grade XI) (Aspergillus oryzae, UniProt Q2UCU3); test: Initial screening assay for enzyme inhibition, β-galactosidase (Asp. oryzae); type: biochemical; conditions: 2% MeOH, read-out: % Enzyme activity relative to control
T2 construct: purchased Sigma; host or cells: Aspergillus oryzae
Protocol: as §1, §4, §3

[4] = biological target: T3, β-xylosidase (EC 3.2.1.37) (Aspergillus niger, UniProt O00089); test: Initial screening assay for enzyme inhibition, β-xylosidase; type: biochemical; conditions: 2% MeOH, read-out: % Enzyme activity relative to control
T3 construct: purchased Sigma; host or cells: Aspergillus niger
Protocol: as §1, §4, §3

[5] = biological target: T4, α-D-glucosidase (brewer's yeast) (Saccharomyces cerevisiae, UniProt P53341); test: IC50 determination against α-D-glucosidase; type: biochemical
T4 construct: purchased Sigma; host or cells: brewer's yeast
Protocol: as §4, with “Background absorption spectra were acquired using millipore filtered water as medium. Steady-state kinetics were maintained by adjusting the amount of enzyme used in each assay so that less than 10% of the substrate was converted to product for the duration of the reaction.” left out

[6] = biological target: T5, α-D-mannosidase (jack bean) (Canavalia ensiformis, UniProt C0HJB3); test: IC50 determination against α-D-mannosidase; type: biochemical; conditions: hot substrate solutions
T5 construct: purchased Sigma; host or cells: jack beans
Protocol: Enzymatic assays with a α-D-mannosidase (jack bean) were complicated by the higher Km of the enzyme (2.04 mM) requiring higher substrate concentrations and the relative insolubility of the .rho.-nitrophenyl mannoside substrate in aqueous media. The assay had to be performed using hot solutions of the substrate which were pipetted with some expected difficulty. Nonetheless, IC50 values of >40 μM and ~10 μM were obtained for the (+)- and (-)-enantiomers of avarol respectively.
as §2, with “Assays. Piperazine-N,N'-bix-(2-ethanesulfonic acid)(PIPES) buffer, enzymes, and substrates were purchased from Sigma and used as received. Buffer solutions and enzymes (desiccated) were stored at 4° C. p-Nitrophenyl glycoside substrates were stored desiccated at -20° C.” for “Assays.”

T2 sequence (Q2UCU3 19-1005): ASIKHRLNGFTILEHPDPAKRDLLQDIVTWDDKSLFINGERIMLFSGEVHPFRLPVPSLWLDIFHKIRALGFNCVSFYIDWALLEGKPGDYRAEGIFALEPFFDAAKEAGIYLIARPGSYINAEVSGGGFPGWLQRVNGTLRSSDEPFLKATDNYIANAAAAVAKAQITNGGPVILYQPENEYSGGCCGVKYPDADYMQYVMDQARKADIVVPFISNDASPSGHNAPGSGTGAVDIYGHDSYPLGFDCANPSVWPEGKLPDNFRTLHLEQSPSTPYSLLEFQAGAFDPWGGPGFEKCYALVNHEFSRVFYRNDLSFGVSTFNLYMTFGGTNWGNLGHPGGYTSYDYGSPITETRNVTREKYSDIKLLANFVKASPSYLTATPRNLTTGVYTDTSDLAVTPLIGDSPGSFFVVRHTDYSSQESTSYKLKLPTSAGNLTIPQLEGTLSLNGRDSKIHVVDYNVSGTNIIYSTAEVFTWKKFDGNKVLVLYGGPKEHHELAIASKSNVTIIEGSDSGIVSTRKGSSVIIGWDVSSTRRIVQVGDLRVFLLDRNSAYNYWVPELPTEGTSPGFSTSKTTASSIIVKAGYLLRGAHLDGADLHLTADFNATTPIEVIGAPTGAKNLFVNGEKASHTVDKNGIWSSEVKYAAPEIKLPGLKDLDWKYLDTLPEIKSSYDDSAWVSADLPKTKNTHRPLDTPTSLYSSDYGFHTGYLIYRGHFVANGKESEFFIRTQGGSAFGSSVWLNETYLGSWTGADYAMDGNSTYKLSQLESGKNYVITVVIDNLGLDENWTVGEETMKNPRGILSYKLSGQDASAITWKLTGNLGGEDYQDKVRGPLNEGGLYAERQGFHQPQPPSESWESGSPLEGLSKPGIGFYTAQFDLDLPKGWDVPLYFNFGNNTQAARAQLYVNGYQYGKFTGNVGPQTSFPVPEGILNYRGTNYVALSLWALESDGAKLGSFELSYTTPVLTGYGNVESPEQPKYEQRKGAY
T4 sequence (P53341 whole entry): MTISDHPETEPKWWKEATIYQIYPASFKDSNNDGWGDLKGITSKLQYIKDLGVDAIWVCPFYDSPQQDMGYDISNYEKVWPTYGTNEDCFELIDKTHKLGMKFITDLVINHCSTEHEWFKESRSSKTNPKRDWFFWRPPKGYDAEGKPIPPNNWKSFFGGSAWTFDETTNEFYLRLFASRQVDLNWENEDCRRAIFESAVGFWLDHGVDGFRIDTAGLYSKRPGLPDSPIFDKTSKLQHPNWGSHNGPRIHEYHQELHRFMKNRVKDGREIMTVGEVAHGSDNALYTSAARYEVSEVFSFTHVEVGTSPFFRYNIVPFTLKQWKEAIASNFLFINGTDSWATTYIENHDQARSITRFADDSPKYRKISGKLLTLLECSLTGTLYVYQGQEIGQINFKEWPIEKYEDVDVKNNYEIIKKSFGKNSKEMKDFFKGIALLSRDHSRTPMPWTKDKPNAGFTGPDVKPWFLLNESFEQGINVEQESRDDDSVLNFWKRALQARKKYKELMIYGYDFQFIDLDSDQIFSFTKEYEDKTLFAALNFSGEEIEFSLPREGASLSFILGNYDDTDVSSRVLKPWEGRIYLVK
T3 sequence (O00089 27-804): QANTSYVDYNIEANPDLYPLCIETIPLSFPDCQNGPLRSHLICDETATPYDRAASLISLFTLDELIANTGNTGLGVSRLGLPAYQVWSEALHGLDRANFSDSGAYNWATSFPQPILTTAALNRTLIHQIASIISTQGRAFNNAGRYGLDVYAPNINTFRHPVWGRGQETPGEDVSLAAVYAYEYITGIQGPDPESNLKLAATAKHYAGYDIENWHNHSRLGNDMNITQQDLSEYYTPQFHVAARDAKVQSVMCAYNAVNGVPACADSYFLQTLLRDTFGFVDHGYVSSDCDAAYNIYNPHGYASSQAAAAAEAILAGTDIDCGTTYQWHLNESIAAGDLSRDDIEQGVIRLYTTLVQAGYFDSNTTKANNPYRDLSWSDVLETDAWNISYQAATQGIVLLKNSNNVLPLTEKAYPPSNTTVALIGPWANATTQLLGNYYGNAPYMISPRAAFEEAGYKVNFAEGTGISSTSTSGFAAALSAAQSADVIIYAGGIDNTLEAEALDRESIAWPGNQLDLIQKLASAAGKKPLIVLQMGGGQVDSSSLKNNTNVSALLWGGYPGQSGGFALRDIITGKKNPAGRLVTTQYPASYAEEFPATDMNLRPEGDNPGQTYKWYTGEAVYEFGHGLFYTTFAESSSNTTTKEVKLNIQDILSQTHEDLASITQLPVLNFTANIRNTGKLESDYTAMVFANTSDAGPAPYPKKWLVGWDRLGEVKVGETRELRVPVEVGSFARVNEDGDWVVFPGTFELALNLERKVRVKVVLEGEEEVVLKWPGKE

Structure (SMILES)	activity versus naturally-occurring enantiomer, α-mannosidase (in words) ([1]; versus (+)-avarol)	remaining activity at 10 µM [1]	% Enzyme activity relative to control ([2]; 10 μM inhibitor)	remaining activity at 20 µM ([3]; 20 μM inhibitor)	remaining activity at 20 µM ([4]; 20 μM inhibitor)	IC50 [5]	IC50 [6]	% Enzyme activity relative to control ([2]; 20 μM inhibitor)	remaining activity at 40 µM ([3]; 40 μM inhibitor)	remaining activity at 40 µM ([4]; 40 μM inhibitor)
CC1=CCC[C@@H]2[C@@](C)(Cc3cc(O)ccc3O)[C@H](C)CC[C@@]12C [(-)-avarol]	significantly more active than the naturally-occurring enantiomer	47%	89%	99%	91%	7.6 µM	~10 µM			
CC1=CCC[C@H]2[C@](C)(Cc3cc(O)ccc3O)[C@@H](C)CC[C@]12C [(+)-avarol, (+)-Avarol]		90%				> 20 µM	> 40 µM	102%	100%	100%
